Measurements as given in patent US20220016060A1, “USE OF SODIUM 2-(3-PENTYLPHENYL)ACETATE IN THE TREATMENT OF ALSTRÖM SYNDROME” (LIMINAL BIOSCIENCES LIMITED, priority 2018, published 2022).
Values joined by “and” are separate entries in the source; they are usually repeats but may differ in a detail not shown here. Equal entries are not always repeated. “Also recorded” adds a separate entry of the source.

Tests used:
ALMS patients [1] = experiment: Liver stiffness by transient elastography (FibroScan) and Metavir score, Phase 2 open-label study; type: in vivo, human; settings: for Change from Baseline Transient Elastography, Mean (SD) / Change from Baseline Transient Elastography, Median / Transient Elastography Score / Metavir Score (F): 800 mg daily oral
Protocol: The study was a Phase 2, single-centre, single-arm, open-label study of sodium 2-(3-pentylphenyl)acetate administered at a total daily oral dose of 800 mg for up to 72 weeks in subjects with ALMS was undertaken. The initial duration of the study was 24 weeks, and subjects were offered to enrol into an extension phase of 36 or 48 weeks. The schedule of study procedures for the enrolment, intervention, and assessments for participants is outlined in FIG. 1. Sodium 2-(3-pentylphenyl)acetate was formulated in soft gelatine capsules containing 200 mg of Sodium 2-(3-pentylphenyl)acetate (amorphous powder) per capsule, polyethylene glycol 400, National Formulary (NF), hydrochloric acid (for pH adjustment), and water. A total of 15 subjects participated in the study. […] Twelve (12) subjects met the eligibility criteria and received at least 1 dose of 800 mg sodium 2-(3-pentylphenyl)acetate, with all 12 subjects completing the initial 24-week treatment period as planned. A 36-week EP was added to the study protocol (Table 1). Ten (10) of the 12 subjects who completed the initial 24-week study drug treatment period continued in the EP, with 6 subjects having a break in treatment until the amendment was implemented before continuing treatment in the EP and 4 subjects continuing in the EP without any break in treatment. Two subjects (826-001-002 and 826-001-014) completed the study after the initial 24-week study drug treatment period. The effect of sodium 2-(3-pentylphenyl)acetate on liver histology in ALMS patients was first assessed by measuring liver stiffness. Liver stiffness is a physical parameter that reflects the health of the liver and is commonly used to diagnose liver diseases. Increased liver stiffness may be associated with hepatic dysfunction.

ALMS patients [2] = experiment: Urinary kidney toxicity biomarkers (MCP-1, KIM-1, clusterin, cystatin C, osteopontin); type: in vivo, human; settings: analyte/creatinine ratio in urine; 800 mg daily oral
Protocol: The study was a Phase 2, single-centre, single-arm, open-label study of sodium 2-(3-pentylphenyl)acetate administered at a total daily oral dose of 800 mg for up to 72 weeks in subjects with ALMS was undertaken. The initial duration of the study was 24 weeks, and subjects were offered to enrol into an extension phase of […]. The schedule of study procedures for the enrolment, intervention, and assessments for participants is outlined in FIG. 1. Sodium 2-(3-pentylphenyl)acetate was formulated in soft gelatine capsules containing 200 mg of Sodium 2-(3-pentylphenyl)acetate (amorphous powder) per capsule, polyethylene glycol 400, National Formulary (NF), hydrochloric acid (for pH adjustment), and water. […] The levels of these markers was assessed at baseline and after 24 weeks of treatment with sodium 2-(3-pentylphenyl)acetate in ALMS patients, and the results are reported in Table 15.

[3] = individual subjects, EP Week 12 (Week 36)
[4] = individual subjects, EP Week 24 (Week 48)
[5] = individual subjects, EP Week 36 (Week 60)

CCCCCc1cccc(CC(=O)[O-])c1.[Na+] [sodium 2-(3-pentylphenyl)acetate]
subjects in whom liver stiffness decreased from baseline (ALMS patients [1]; 8/11 subjects, after treatment with 800 mg): 72.3%
Change from Baseline Transient Elastography, Mean (SD) (ALMS patients [1]; EP Week 12 (Week 36), N=10): −1.41 (2.585) kPa
Change from Baseline Transient Elastography, Median (ALMS patients [1]; EP Week 12 (Week 36), N=10): −1.75 kPa
Change from Baseline Transient Elastography, Mean (SD) (ALMS patients [1]; EP Week 24 (Week 48), N=10): −1.49 (2.335) kPa
Change from Baseline Transient Elastography, Median (ALMS patients [1]; EP Week 24 (Week 48), N=10): −1.45 kPa
Change from Baseline Transient Elastography, Mean (SD) (ALMS patients [1]; EP Week 36 (Week 60), N=9): −2.59 (2.703) kPa
Change from Baseline Transient Elastography, Median (ALMS patients [1]; EP Week 36 (Week 60), N=9): −2.30 kPa
largest increase in liver stiffness from baseline (ALMS patients [1]; Subject 826-001-013, 30-day break in treatment): 1.8 kPa
Metavir score at Week 60 (ALMS patients [1]; Subject 826-001-015, baseline F4): F0/1 (Metavir score F0-F1: absence or mild fibrosis (2.5-7.0 kPa on FibroScan ®))
number of subjects with at least a 1-grade reduction in liver fibrosis (Metavir scoring system) (ALMS patients [1]; Subjects 826-001-001, -004, -012, -015): 4 subjects
Change from Baseline Transient Elastography, Mean (SD) (ALMS patients [1]; Week 12, N=11): −1.19 (2.160) kPa
Change from Baseline Transient Elastography, Median (ALMS patients [1]; Week 12, N=11): −1.50 kPa
Change from Baseline Transient Elastography, Mean (SD) (ALMS patients [1]; Week 24, N=11): −1.01 (2.308) kPa
Change from Baseline Transient Elastography, Median (ALMS patients [1]; Week 24, N=11): −0.70 kPa
decrease in liver stiffness from baseline (mean) (ALMS patients [1]; after 60 weeks of treatment, p=0.0207): 2.59 kPa
Transient Elastography Score (ALMS patients [1]; individual subjects (one line per subject), Week 12): 7.1 kPa and 6.1 kPa and 4.5 kPa and 5.3 kPa and 3.1 kPa and 10.5 kPa and 19.6 kPa and 7.8 kPa and 12.2 kPa and 12.0 kPa and 50.5 kPa and 7.7 kPa
Metavir Score (F) (ALMS patients [1]; [3]): (F0/1) (Metavir score F0-F1: absence or mild fibrosis (2.5-7.0 kPa on FibroScan ®)); also recorded: (F2) (Metavir score F2: significant fibrosis ≥ 7.1 to < 9.5 kPa on FibroScan ®)); also recorded: (F4) (Metavir score F4: cirrhosis( ≥ 12.5 kPa on FibroScan ®)); also recorded: (F3) (Metavir score F3: severe fibrosis ≥ 9.5 to < 12.5 kPa on FibroScan ®)
Transient Elastography Score (ALMS patients [1]; [3]): 6.6 kPa and 4.2 kPa and 6.5 kPa and 4.6 kPa and 8.9 kPa and 18.6 kPa and 5.8 kPa and 10.2 kPa and 14.7 kPa and 7.4 kPa
Metavir Score (F) (ALMS patients [1]; [4]): (F2) (Metavir score F2: significant fibrosis ≥ 7.1 to < 9.5 kPa on FibroScan ®)); also recorded: (F0/1) (Metavir score F0-F1: absence or mild fibrosis (2.5-7.0 kPa on FibroScan ®)); also recorded: (F4) (Metavir score F4: cirrhosis( ≥ 12.5 kPa on FibroScan ®)); also recorded: (F3) (Metavir score F3: severe fibrosis ≥ 9.5 to < 12.5 kPa on FibroScan ®)
Transient Elastography Score (ALMS patients [1]; [4]): 7.1 kPa and 4.1 kPa and 4.7 kPa and 5.1 kPa and 7.5 kPa and 21.6 kPa and 5.0 kPa and 12.1 kPa and 12.6 kPa and 6.9 kPa
Metavir Score (F) (ALMS patients [1]; [5]): (F2) (Metavir score F2: significant fibrosis ≥ 7.1 to < 9.5 kPa on FibroScan ®)); also recorded: (F0/1) (Metavir score F0-F1: absence or mild fibrosis (2.5-7.0 kPa on FibroScan ®)); also recorded: (F4) (Metavir score F4: cirrhosis( ≥ 12.5 kPa on FibroScan ®)); also recorded: (F3) (Metavir score F3: severe fibrosis ≥ 9.5 to < 12.5 kPa on FibroScan ®)
Transient Elastography Score (ALMS patients [1]; [5]): 7.8 kPa and 3.8 kPa and 5.0 kPa and 3.9 kPa and 17.1 kPa and 6.0 kPa and 8.6 kPa and 12.2 kPa and 5.1 kPa
Metavir Score (F) (ALMS patients [1]; individual subjects, Week 12): (F2) (Metavir score F2: significant fibrosis ≥ 7.1 to < 9.5 kPa on FibroScan ®)); also recorded: (F0/1) (Metavir score F0-F1: absence or mild fibrosis (2.5-7.0 kPa on FibroScan ®)); also recorded: (F3) (Metavir score F3: severe fibrosis ≥ 9.5 to < 12.5 kPa on FibroScan ®); also recorded: (F4) (Metavir score F4: cirrhosis( ≥ 12.5 kPa on FibroScan ®))
Metavir Score (F) (ALMS patients [1]; individual subjects, Week 24): (F2) (Metavir score F2: significant fibrosis ≥ 7.1 to < 9.5 kPa on FibroScan ®)); also recorded: (F0/1) (Metavir score F0-F1: absence or mild fibrosis (2.5-7.0 kPa on FibroScan ®)); also recorded: (F4) (Metavir score F4: cirrhosis( ≥ 12.5 kPa on FibroScan ®))
Transient Elastography Score (ALMS patients [1]; individual subjects, Week 24): 7.2 kPa and 7.6 kPa and 5.9 kPa and 5.2 kPa and 4.6 kPa and 8.1 kPa and 21.8 kPa and 5.6 kPa and 8.6 kPa and 14.3 kPa and 48.9 kPa and 9.0 kPa
Urinary Clusterin, Mean Fold Change from Baseline to Week 24 (ALMS patients [2]): 0.66
Urinary Clusterin, mean change from Baseline to Week 24 (%) (ALMS patients [2]): −34%
Urinary Cystatin C, Mean Fold Change from Baseline to Week 24 (ALMS patients [2]): 0.75
Urinary Cystatin C, mean change from Baseline to Week 24 (%) (ALMS patients [2]): −25%
Urinary KIM-1, Mean Fold Change from Baseline to Week 24 (ALMS patients [2]): 0.67
Urinary KIM-1, mean change from Baseline to Week 24 (%) (ALMS patients [2]): −33%
Urinary MCP-1, Mean Fold Change from Baseline to Week 24 (ALMS patients [2]): 0.85
Urinary MCP-1, mean change from Baseline to Week 24 (%) (ALMS patients [2]): −15%
